In patent publication US12595261B2, “P2X3 and/or P2X2/3 receptor antagonist, pharmaceutical composition containing same, and use thereof” (BEIJING TIDE PHARMACEUTICAL CO., LTD., priority 2019, dated 2026):

What was measured:
Human P2X3 receptor = target: T1, Human P2X3 receptor (Homo sapiens, UniProt P56373); assay: Inhibitory activity on human P2X3 receptor (FLIPR calcium 6 assay, HEK293-P2X3 cells, agonist α,β-MeATP); assay type: cell-based; details: HEK293-P2X3 stably expressing cell line, FLIPR Tetra
T1 construct: expressed in transfected cells; host or cells: HEK293 (stably expressing)
T1 sequence (P56373 1-397): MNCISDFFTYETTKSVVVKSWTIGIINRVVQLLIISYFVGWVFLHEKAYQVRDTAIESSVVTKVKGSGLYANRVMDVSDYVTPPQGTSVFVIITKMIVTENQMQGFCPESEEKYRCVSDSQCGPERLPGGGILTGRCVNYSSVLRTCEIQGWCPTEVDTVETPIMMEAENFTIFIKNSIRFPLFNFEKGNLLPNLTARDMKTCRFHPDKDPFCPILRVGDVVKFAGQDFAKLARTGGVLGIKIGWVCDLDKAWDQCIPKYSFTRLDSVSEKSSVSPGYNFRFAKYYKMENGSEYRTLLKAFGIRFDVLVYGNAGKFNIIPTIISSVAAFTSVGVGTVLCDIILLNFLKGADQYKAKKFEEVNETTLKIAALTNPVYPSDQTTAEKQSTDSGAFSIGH
Procedure: (§1) Biological Assay: Determination of the Inhibitory Activity of the Compounds on Human P2X3 and P2X2/3 Receptors
(§2) Cells were seeded into a poly-D-lysine-coated 384-well cell culture plate (Corning) at a density of 11,000 cells/well/25 μL of cell inoculation medium, and were cultured in a cell incubator overnight. On the day of the test, the calcium 6 dye was diluted to a 2× concentration with an assay buffer, 25 μL of the 2× calcium 6 dye was added to the 384-well cell culture plate, which was incubated at 37° C. for 2 hours, and then placed at room temperature for further use. The test compound and the agonist, α,β-MeATP were diluted to a 7× concentration with the assay buffer, 10 μL of the 7× test compound was added to the 384-well cell culture plate, which was incubated at room temperature for 15 minutes, and 10 μL of the 7× α,β-MeATP was transferred into the 384-well cell culture plate. […]

Human P2X2/3 receptor = target: T2, Human P2X2/3 receptor (Homo sapiens, UniProt P56373+Q9UBL9); assay: Inhibitory activity on human P2X2/3 receptor (FLIPR calcium 6 assay, HEK293-P2X2/3 cells, agonist α,β-MeATP); assay type: cell-based; details: HEK293-P2X2/3 stably expressing cell line, FLIPR Tetra
T2 construct: expressed in transfected cells; host or cells: HEK293 (stably expressing)
T2 sequence (P56373 1-397): T1 sequence (P56373 1-397)
T2 sequence (Q9UBL9 1-471): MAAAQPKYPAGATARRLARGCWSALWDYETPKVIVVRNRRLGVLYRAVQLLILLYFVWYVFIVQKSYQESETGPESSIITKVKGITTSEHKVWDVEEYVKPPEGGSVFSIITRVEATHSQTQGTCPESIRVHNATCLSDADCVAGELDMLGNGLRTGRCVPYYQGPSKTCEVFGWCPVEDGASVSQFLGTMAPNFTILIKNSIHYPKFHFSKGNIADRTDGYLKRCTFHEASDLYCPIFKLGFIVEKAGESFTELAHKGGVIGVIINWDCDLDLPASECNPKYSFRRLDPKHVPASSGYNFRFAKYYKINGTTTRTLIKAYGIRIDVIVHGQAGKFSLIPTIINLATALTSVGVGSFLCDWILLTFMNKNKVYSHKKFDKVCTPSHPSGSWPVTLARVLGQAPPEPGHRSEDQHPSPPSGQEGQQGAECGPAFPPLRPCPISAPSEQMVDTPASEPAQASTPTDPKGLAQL
Procedure: as §1, §2

Structure (SMILES): CC(C)c1cnc2[nH]ccc2c1Oc1cnc(N)nc1N [Compound C4, 5-((5-isopropyl-1H-pyrrolo[2,3-b]pyridin-4-yl)oxy)pyrimidin-2,4-diamine]
- IC50 (Human P2X3 receptor): 0.086 µM
- IC50 (Human P2X2/3 receptor): 0.08 µM

Structure (SMILES): CC(C)c1cnc2c(c1Oc1cnc(N)nc1N)CCN2 [Compound C1, 5-((5-isopropyl-2,3-dihydro-1H-pyrrolo[2,3-b]pyridin-4-yl)oxy)pyrimidin-2,4-diamine]
- IC50 (Human P2X3 receptor): 0.0605 µM
- IC50 (Human P2X2/3 receptor): 0.1 µM
